Key:
[1] = target: Kv7.2/Kv7.3 channels (Homo sapiens, UniProt O43525+O43526); assay: FluxOR thallium-sensitive fluorescence-based assay in CHO cells stably expressing Kv7.2 + Kv7.3; type: cell-based; parameters: expressed in transfected cells; conditions: 10 μM; for Kv7 opening activity (in words): compared with retigabine or the reference compound of the subseries; for Slope of the fluorescent signal at 10 μM: initial slope of FluxOR signal between 5 and 15 s, mean ± SEM
Procedure: While assay robustness in Kv7.2/Kv7.3-expressing cells was high (Z′ factor > 0.5),[27] the Z′ factor calculated in CHO cells expressing Kv7.2 subunits alone was <0.5; thus, all subsequent pharmacological screens were performed in Kv7.2/Kv7.3-expressing cells. […] The Kv7.2/Kv7.3-stable cell line was generated using a plasmid-based PiggyBac transposon system that enables genomic integration of multiple independent transposons containing distinct cDNA sequences. cDNAs for KCNQ2 and KCNQ3 genes (encoding for Kv7.2 and Kv7.3, respectively) were cloned into two different PiggyBac expression vectors (pB-CMV-MCS-EF1α-RedPuro, System Biosciences), and these two plasmids, together with a plasmid encoding for the transposase (System Biosciences), were transfected into CHO cells using Lipofectamine 2000 (Invitrogen) as indicated in the protocol provided by the seller company.
The selected clone stably expressing Kv7.2/Kv7.3 channels was grown in DMEM supplemented with 10% FBS, 50 U/mL Pen-Strep, 2 mM L-glutamine (all purchased from Gibco), and 4 μg/mL puromycin (Sigma) in a humidified atmosphere at 37 °C with 5% CO2. […] A kinetic dispense microplate reader (FLUOstar Optima) was used to read the plate, setting the excitation filter at 485 nm and the emission filter at 520 nm; “Stimulus buffer” prepared as indicated in the protocol was automatically added to wells after 5 s of recording; the plate was read every 1 s, for 50 s. The results were analyzed using Optima Data Analysis and Microsoft Excel.
Only experiments resulting in a Z′ > 0.5 were considered. Data shown (Figures 1D,E,F,G and 3B) were obtained from at least three independent experiments.
Data were analyzed using the GraphPad Prism 8.0.2 (GraphPad Software, LaJolla, CA). Statistically significant differences in the initial slope of the curves were evaluated through ordinary one-way ANOVA, and multiple comparisons were corrected with the Tukey test. […] Indicated EC50 values are the mean of at least three independent experiments ± standard error of the mean (SEM).

[2] = Photostability under UV-visible light with HPLC analysis (degradation, dimer formation); type: physicochemical; conditions: for % Degradation (3h, UV): 10 μM, buffered aqueous solution pH 7.4, 3 h UV-visible light, ± SD; for Dimers Formation: 3 h UV-visible light, HPLC at 550 nm
From the text: Two different HPLC wavelengths were utilized: (a) […] to evaluate the decreased concentration of the starting molecule; (b) 550 nm to investigate the formation of phenazine/phenazinium dimers, as previously described.[10] Unfortunately, dimer formation was detected for all tested compounds, except for 23 and 24. […]. […]. The first group consisted of N4 (−X- in Table 2) substituted analogues, in which the tertiary amine is unavailable for the formation of phenazine dimers (compounds 25–28). […]. The third group included derivatives replacing hydrogen atoms with electron-withdrawing fluorine atoms at position R2 of the benzene-1,2,4-triamine core scaffold (compounds 59, 60), a strategy likely reducing the reactivity of N2 and N4. […].
Photostability experiments were performed by dissolving compounds in DMSO and then diluting in buffered aqueous solutions at pH 7.4 to a final concentration of 10 μM. 1 cm quartz cells, filled with the abovementioned solutions, were irradiated by a UV lamp (UV Consulting TQ 150 equipped with Duran 50 sleeve and 150 W power supply unit, Peschl, Germany) at a fixed distance of 20 cm from the UV source. Control samples were maintained at 37 °C, wrapped with aluminum foil to avoid light exposure, and used to assess chemical stability of the compounds. At predetermined intervals, aliquots were withdrawn and analyzed by UHPLC in order to assess the concentration decrease of the starting materials and the presence of the dimers usually formed by retigabine.
Photostability and chemical stability experiments were carried out on a Kinetex^TM C18 150 × 2.1 mm × 2.6 μm (100 Å) column (Phenomenex, Bologna, Italy). The optimal mobile phase consisted of 0.1% TFA/H2O v/v (A) and 0.1% TFA/ACN v/v (B). Analysis was performed in gradient elution as follows: 0–13.0 min, 5–65% B; 13–14.0 min, 65–95% B; 14–15.0 min, isocratic to 95% B; 15–15.01 min, 95–5% B; then 3 min for column re-equilibration. The flow rate was 0.5 mL min^–1. The column oven temperature was set to 45 °C. The injection volume was 7 μL of sample. The following PDA parameters were applied: sampling rate, 12.5 Hz; detector time constant, 0.160 s; cell temperature, 40 °C. Data acquisition was set in the range 190–800 nm, and chromatograms were monitored at 224 nm to assess the decrease in concentration of the starting material, while a wavelength of 550 nm was used to eventually detect dimerization.

| Molecule | Kv7 opening activity (in words) [1] | Slope of the fluorescent signal at 10 μM [1] | % Degradation (3h, UV) [2] | Dimers Formation [2] |
| --- | --- | --- | --- | --- |
| CCCCCCC(=O)Nc1ccc(NCc2ccc(C(F)(F)F)cc2)cc1 [compound 2, N-(4-((4-(Trifluoromethyl)benzyl)amino)phenyl)heptanamide] | still active although with slightly lower efficacy | 0.0326±0.0063 |  |  |
| CCCCCCC(=O)Nc1ccc(NCc2ccc(C(F)(F)F)cc2)cc1N [compound 13, N-(2-Amino-4-((4-(trifluoromethyl)benzyl)amino)phenyl)heptanamide] |  | 0.0443±0.0049 | 30.6 ± 2.2% | Yes |
| CCCCCCCC(=O)Nc1ccc(NCc2ccc(C(F)(F)F)cc2)cc1N [compound 14, N-(2-Amino-4-((4-(trifluoromethyl)benzyl)amino)phenyl)octanamide] |  | 0.0563±0.0039 | 73.2±0.4% | Yes |
| CCCCCCCCCC(=O)Nc1ccc(NCc2ccc(C(F)(F)F)cc2)cc1N [compound 15, N-(2-Amino-4-((4-(trifluoromethyl)benzyl)amino)phenyl)decanamide] | progressive decrease in Kv7 opening ability | 0.0261±0.0030 |  |  |
| CCCCCCCCCCCC(=O)Nc1ccc(NCc2ccc(C(F)(F)F)cc2)cc1N [compound 16, N-(2-Amino-4-((4-(trifluoromethyl)benzyl)amino)phenyl)dodecanamide] | progressive decrease in Kv7 opening ability | 0.0084±0.0004 |  |  |
| CC(C)(C)CC(=O)Nc1ccc(NCc2ccc(C(F)(F)F)cc2)cc1N [compound 17, N-(2-Amino-4-((4-(trifluoromethyl)benzyl)amino)phenyl)-3,3-dimethylbutanamide] |  | 0.0512±0.0040 | 79.8 ± 4.2% | Yes |
| Nc1cc(NCc2ccc(C(F)(F)F)cc2)ccc1NC(=O)C1CC1 [compound 18, N-(2-Amino-4-((4-(trifluoromethyl)benzyl)amino)phenyl)cyclopropanecarboxamide] |  | 0.0346±0.0078 |  |  |
| Nc1cc(NCc2ccc(C(F)(F)F)cc2)ccc1NC(=O)CCC1CCCCC1 [compound 19, N-(2-Amino-4-((4-(trifluoromethyl)benzyl)amino)phenyl)-3-cyclohexylpropanamide] |  | 0.0452±0.0077 | 64.8 ± 0.9% | Yes |
| COCCOCC(=O)Nc1ccc(NCc2ccc(C(F)(F)F)cc2)cc1N [compound 20, N-(2-Amino-4-((4-(trifluoromethyl)benzyl)amino)phenyl)-2-(2-methoxyethoxy)acetamide] | complete loss of activity | 0.0062±0.0005 |  |  |
| CCCCCCC(=O)Nc1ccc(N(CCC)Cc2ccc(C(F)(F)F)cc2)cc1N [compound 27, N-(2-Amino-4-(propyl(4-(trifluoromethyl)benzyl)amino)phenyl)heptanamide] | did not improve activity | 0.0363±0.0052 |  |  |
| CCCCCCC(=O)Nc1ccc(N(Cc2ccc(C(F)(F)F)cc2)C(C)=O)cc1N [compound 28, N-(2-Amino-4-(N-(4-(trifluoromethyl)benzyl)acetamido)phenyl)heptanamide] | markedly reduced activity | 0.0138±0.0024 |  |  |
| CCCCCCC(=O)Nc1ccc(OCc2ccc(C(F)(F)F)cc2)cc1N [compound 31, N-(2-Amino-4-((4-(trifluoromethyl)benzyl)oxy)phenyl)heptanamide] | failed to activate Kv7.2/ Kv7.3 channels | 0.0057±0.0005 |  |  |
| CCCCCCC(=O)Nc1ccc(NCCc2ccc(F)cc2)cc1N [compound 42, N-(2-Amino-4-((4-fluorophenethyl)amino)phenyl)heptanamide] | complete loss of activity | 0.0098±0.0010 |  |  |
| CCCCCCC(=O)Nc1ccc(NCc2ccccn2)cc1N [compound 47, N-(2-Amino-4-((pyridin-2-ylmethyl)amino)phenyl)heptanamide] | complete loss of activity | 0.0071±0.0004 |  |  |
| CCCCCCC(=O)Nc1ccc(NCc2ccncc2)cc1N [compound 51, N-(2-Amino-4-((pyridin-4-ylmethyl)amino)phenyl)heptanamide] | complete loss of activity | 0.0063±0.0002 |  |  |
| CCCCCCC(=O)Nc1ccc(NCc2ccc(O)cc2)cc1N [compound 57, N-(2-Amino-4-((4-hydroxybenzyl)amino)phenyl)heptanamide] | complete loss of activity | 0.0068±0.0003 |  |  |
| CCCCCCC(=O)Nc1ccc(NCc2ccc(C(F)(F)F)cc2)c(F)c1N [compound 59, N-(2-Amino-3-fluoro-4-((4-(trifluoromethyl)benzyl)amino)phenyl)heptanamide] | similar | 0.0345±0.0026 |  |  |
| CC(C)(C)CC(=O)Nc1ccc(CCc2ccc(C(F)(F)F)cc2)cc1N [compound 68, N-(2-Amino-4-(4-(trifluoromethyl)phenethyl)phenyl)-3,3-dimethylbutanamide] | failed to activate Kv7.2/ Kv7.3 channels | 0.0073±0.0005 |  |  |
| CCCCCCNC(=O)c1ccc(NCc2ccc(C(F)(F)F)cc2)cc1N [compound 71, 2-Amino-N-hexyl-4-((4-(trifluoromethyl)benzyl)amino)benzamide] | complete loss of activity | 0.0066±0.0006 |  |  |
| N-(2-Amino-4-(4-(trifluoromethyl)phenethyl)phenyl)heptanamide [compound 67] | failed to activate Kv7.2/ Kv7.3 channels | 0.0087±0.0002 |  |  |

Source: article PMC9421656, “Beyond Retigabine: Design, Synthesis, and Pharmacological Characterization of a Potent and Chemically Stable Neuronal Kv7 Channel Activator with Anticonvulsant Activity” (Journal of Medicinal Chemistry, 2022)
